Measurements published in patent US20040132696A1, “Therapeutic agents for pigmentation and melanocyte growth inhibitory agents” (priority 1999, published 2004).
Read-outs that look alike come from different tables or passages of the source.

Assays:
Type in all cases: cell-based
[1] = system: normal human epidermal melanocytes (NHEM); assay: Growth inhibition of cultured human melanocytes (cell count by Coulter Counter); details: Melanocyte, 144 h, read-out: inhibitory effect against the proliferation of melanocytes
Procedure: (§1) Melanocytes: normal human epidermal melanocytes (NHEM:KM-4009, Kurabo Industries).
(§2) Melanocytes were cultured at 2×10^5 cells/well in MGM3 (Melanocyte Growth Medium 3, Takara Shuzo) used as a culture medium. Keratinocytes were cultured at 1×10^5 cells/well in KGM2 (Keratinocyte Growth Medium 2, Takara Shuzo) used as a culture medium. To each well was added 22-oxacalcitriol or calcitriol at a final concentration of 10^−7 M and cultivation was continued. On days 3 and 6 after the addition, the number of cells was determined by a Coulter Counter.

[2] = system: normal human epidermal keratinocytes (HEKn); assay: Growth inhibition of cultured human keratinocytes (cell count by Coulter Counter); details: Keratinocyte, 144 h, read-out: inhibition against keratinocytes
Procedure: Keratinocytes: normal human epidermal keratinocytes (HEKn:C-001-5C, Kurabo Industries).
as §2

Human melanocytes = assay: Tritiated thymidine (3[H]-TdR) uptake by cultured human melanocytes; details: 10^-7 M, day 1
Procedure: as §1
Human melanocytes were cultured at 5×10^5 cells/well in MGM3 used as a culture medium, and 22-oxacalcitriol or calcitriol was added to each well at a final concentration of 10^−7 M to determine tritiated thymidine (^3[H]-TdR) uptake by cells in a liquid scintillation counter on days 1, 3 and 5 after the addition.

[3] = 10^-7 M, day 6, average of 5 experiments

Row | SMILES | inhibition at 0.1 µM [1, 3] [%] | inhibition at 0.1 µM [2, 3] [%] | inhibition at 0.1 µM [1] [%] | inhibition at 0.1 µM [2] [%] | decrease in tritiated thymidine uptake (Human melanocytes) [%]
1 | C=C1/C(=C\C=C2/CCC[C@]3(C)[C@@H]([C@H](C)OCCC(C)(C)O)CC[C@@H]23)C[C@@H](O)C[C@@H]1O [22-oxacalcitriol] | ≥ 30 | 25 |  |  | 
2 | C=C1/C(=C\C=C2/CCC[C@]3(C)[C@@H]([C@H](C)CCCC(C)(C)O)CC[C@@H]23)C[C@@H](O)C[C@@H]1O [calcitriol, 1α,25-dihydroxyvitamin D3] |  |  | ≥ 30 | 40 | 50
